The record followed here is patent publication US20150246025A1, “2-PHENYL-5-HETEROCYCLYL-TETRAHYDRO-2H-PYRAN-3-AMINE COMPOUNDS FOR USE IN THE TREATMENT OF DIABETES AND ITS ASSOCIATED DISORDERS” (CADILA HEALTHCARE LIMITED, priority 2012, published 2015).

Assay [1] addresses T1, DPP-IV enzyme (Homo sapiens, UniProt P27487).
T1 construct: soluble human proteins (DPP-IV enzyme) produced in a baculovirus expression system; made in house; host or cells: baculovirus expression system (Life Technologies)
The assay can be described thus: In vitro DPP-IV inhibitory activity using enzymatic (fluorescence-based) assay. It counts as biochemical. The note with it: soluble human DPP-IV, H-Gly-Pro-AMC 200 μM, pH 7.8, 25° C., 30 min; read-out: % In-vitro DPPIV Inhibition IC50. As to the method: In Vitro DPP-IV Inhibitory Activity Using Enzymatic Assay:
In vitro enzyme (DPP-IV) inhibitory activity was determined using fluorescence-based assay (Anal. Biochem., 200, 352, 1992). The Gly-Pro-AMC was used as a substrate (which is cleaved by the enzymes to release the fluorescent AMC) and soluble human proteins (DPP-IV enzyme) produced in a baculovirus expression system (Life Technologies) was used as the enzyme source. The H-Gly-Pro-AMC (200 μM) was incubated with DPP-IV enzyme in the presence of various concentrations (30 & 100 nM) of test compounds. Reaction was carried out at pH 7.8 (HEPES buffer 25 mM containing 1.0% BSA, 140 mM NaCl, 16 mM MgCl2, 2.8% DMSO) in a total volume of 100 μl at 25° C. for 30 min., in the dark. Reaction was terminated with acetic acid (25 μl of 25% solution). Activity (fluorescence) was measured using Spectra Max fluorometer (Molecular Devices, Sunnyvale Calif.) by exciting at 380 nm and emission at 460 nm.

Assay [2] deals with C57BL/6J mice. The assay can be described thus: In vivo antihyperglycaemic/antidiabetic activity (OGTT), acute single dose 120-min time-course. The note with it: Mus musculus, 2 h; male C57BL/6J mice, acute single dose 0,3 mg/kg po, 120-min time-course, n = 6, Mean ± SEM; read-out: In vivo OGTT C57; % Glucose change. As to the method:
Acute single dose 120-min time-course experiments were carried out in male C57BL/6J mice, age 8-12 weeks, bred in-house. Animals were housed in groups of 6 animals per cage, for a week, in order to habituate them to vivarium conditions (25±4° C., 60-65% relative humidity, 12: 12 h light: dark cycle, with lights on at 7.30 am). All the animal experiments were carried out according to the internationally valid guidelines following approval by the ‘Zydus Research Center animal ethical committee’.
The in-vivo glucose lowering properties of the test compounds were evaluated in C57BL/6J (mild hyperglycemic) animal models as described below. Two days prior to the study, the animals were randomized and divided into groups (n=6), based upon their fed glucose levels. On the day of experiment, food was withdrawn from all the cages, water was given ad-libitum and were kept for overnight fasting. Vehicle (normal saline)/test compounds were administered orally, on a body weight basis. Soon after the 0 min. blood collection from each animal, the subsequent blood collections were done at 30, 60 and 120 or upto 240 min., via retro-orbital route, under light ether anesthesia (Diabetes Obesity Metabolism, 7, 307, 2005; Diabetes, 52, 751, 2003).
Blood samples were centrifuged and the separated serum was immediately subjected for the glucose estimation. Serum for insulin estimation was stored at −70° C. until used for the insulin estimation. The glucose estimation was carried out with DPEC-GOD/POD method (Ranbaxy Fine Chemicals Limited, Diagnostic division, India), using Spectramax-190, in 96-microwell plate reader (Molecular devices Corporation, Sunnyvale, Calif.). […] The AUC and BCAUC obtained from graphs were analyzed for one way ANOVA, followed by Dunnett's post test, using Graph Pad prism software.

T1 sequence (P27487 39-766 limits assumed): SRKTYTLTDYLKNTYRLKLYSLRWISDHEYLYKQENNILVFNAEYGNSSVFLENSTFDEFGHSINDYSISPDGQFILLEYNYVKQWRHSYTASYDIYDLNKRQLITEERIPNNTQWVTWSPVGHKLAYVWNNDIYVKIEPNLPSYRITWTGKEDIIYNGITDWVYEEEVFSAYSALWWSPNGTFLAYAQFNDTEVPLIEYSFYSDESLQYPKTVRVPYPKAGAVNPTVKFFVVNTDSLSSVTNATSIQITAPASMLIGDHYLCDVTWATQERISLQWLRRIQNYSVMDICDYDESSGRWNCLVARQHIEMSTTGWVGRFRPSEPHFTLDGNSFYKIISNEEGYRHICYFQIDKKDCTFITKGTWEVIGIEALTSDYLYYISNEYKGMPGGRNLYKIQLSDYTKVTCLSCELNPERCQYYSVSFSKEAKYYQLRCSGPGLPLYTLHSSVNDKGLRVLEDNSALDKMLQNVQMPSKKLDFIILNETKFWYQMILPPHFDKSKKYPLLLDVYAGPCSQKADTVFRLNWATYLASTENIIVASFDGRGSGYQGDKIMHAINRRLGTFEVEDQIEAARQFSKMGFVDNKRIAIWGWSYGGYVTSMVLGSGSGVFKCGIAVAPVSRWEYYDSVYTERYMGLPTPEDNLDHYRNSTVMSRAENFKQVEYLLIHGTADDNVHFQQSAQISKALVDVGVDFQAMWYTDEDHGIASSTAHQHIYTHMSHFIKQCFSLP

In the case of `CC(C)c1ccc(S(=O)(=O)N2CC3=C(CN([C@H]4CO[C@H](c5cc(F)ccc5F)[C@@H](N)C4)C3)C2)cc1` [Compound 39, (2R,3S,5R)-2-(2,5-difluorophenyl)-5-(5-((4-isopropylphenyl)sulfonyl)-5,6-dihydropyrrolo[3,4-c]pyrrol-2(1H,3H,4H)-yl)tetrahydro-2H-pyran-3-amine], the IC50 (commonly the concentration needed to halve the response being measured) in assay [1] was below 0.01 µM. The change in vivo at 0.3 mg/kg in assay [2] is -25.1 ± 3.6%.

Take `N[C@H]1C[C@@H](N2CC3=C(C2)CN(S(=O)(=O)c2ccc(F)cc2)C3)CO[C@@H]1c1cc(F)ccc1F` [Compound 33, (2R,3S,5R)-2-(2,5-difluorophenyl)-5-(5-((4-fluorophenyl)sulfonyl)-5,6-dihydropyrrolo[3,4-c]pyrrol-2 (1H,3H,4H)-yl)tetrahydro-2H-pyran-3-amine]: in assay [1], the IC50 is below 0.03 µM. The change in vivo at 0.3 mg/kg in assay [2] was -16.8 ± 1.6%.

As for `COc1ccc(S(=O)(=O)N2CC3=C(CN([C@H]4CO[C@H](c5cc(F)ccc5F)[C@@H](N)C4)C3)C2)cc1` [Compound 38, (2R,3S,5R)-2-(2,5-difluorophenyl)-5-(5-((4-methoxyphenyl)sulfonyl)-5,6-dihydropyrrolo[3,4-c]pyrrol-2(1H,3H,4H)-yl)tetrahydro-2H-pyran-3-amine], the IC50 in assay [1] was below 0.01 µM. The change in vivo at 0.3 mg/kg in assay [2] is -22 ± 2.6%.

For the compound `CS(=O)(=O)N1C[C@H]2CN([C@H]3CO[C@H](c4cc(F)ccc4F)[C@@H](N)C3)C[C@H]21` [Compound 19, (2R,3S,5R)-2-(2,5-difluorophenyl)-5-((1R,5S)-6-(methylsulfonyl)-3,6-diazabicyclo[3.2.0]heptan-3-yl)tetrahydro-2H-pyran-3-amine], the IC50 in assay [1] was below 0.1 µM. Further, in assay [2], the change in vivo at 0.3 mg/kg was -20.6 ± 3%.

On to `N[C@H]1C[C@@H](N2CC3=C(CN(C(=O)Nc4ccccc4)C3)C2)CO[C@@H]1c1cc(F)ccc1F` [Compound 45, 5-((3R,5S,6R)-5-amino-6-(2,5-difluorophenyl)tetrahydro-2H-pyran-3-yl)-N-phenyl-3,4,5,6-tetrahydropyrrolo[3,4-c]pyrrole-2(1H)-carboxamide], for which, in assay [1], the IC50 is below 0.01 µM. Further, the change in vivo at 0.3 mg/kg in assay [2] is -34.9 ± 4.4%.

As to `N#Cc1ccc(S(=O)(=O)N2CC3=C(CN([C@H]4CO[C@H](c5cc(F)ccc5F)[C@@H](N)C4)C3)C2)cc1` [Compound 34, 4-((5-((3R,5S,6R)-5-amino-6-(2,5-difluorophenyl)tetrahydro-2H-pyran-3-yl)-5,6-dihydropyrrolo[3,4-c]pyrrol-2(1H,3H,4H)-yl)sulfonyl)benzonitrile], the IC50 in assay [1] was below 0.01 µM. The change in vivo at 0.3 mg/kg in assay [2] is -30.1 ± 3.4%.

As to `N[C@H]1C[C@@H](N2CC3=C(CN(C(=O)C4CCCC4)C3)C2)CO[C@@H]1c1cc(F)ccc1F` [Compound 25, (5-((3R,5S,6R)-5-amino-6-(2,5-difluorophenyl)tetrahydro-2H-pyran-3-yl)-5,6-dihydropyrrolo[3,4-c]pyrrol-2(1H,3H,4H)-yl)(cyclopentyl)methanone], in assay [1], the IC50 is below 0.03 µM. Also, the change in vivo at 0.3 mg/kg in assay [2] is -12.2 ± 2.5%.

On to `CCS(=O)(=O)N1CC2=C(CN([C@H]3CO[C@H](c4cc(F)ccc4F)[C@@H](N)C3)C2)C1` [Compound 30, (2R,3S,5R)-2-(2,5-difluorophenyl)-5-(5-(ethylsulfonyl)-5,6-dihydropyrrolo[3,4-c]pyrrol-2(1H,3H,4H)-yl)tetrahydro-2H-pyran-3-amine], for which, in assay [1], the IC50 is below 0.01 µM. Also, the change in vivo at 0.3 mg/kg in assay [2] is -35 ± 1.4%.

For the compound `N[C@H]1C[C@@H](N2CC3CN(S(=O)(=O)c4ccccc4)CC3C2)CO[C@@H]1c1cc(F)ccc1F` (stereo partly drawn) [Compound 6, (2R,3S,5R)-2-(2,5-difluorophenyl)-5-(5-(phenylsulfonyl)hexahydropyrrolo[3,4-c]pyrrol-2(1H)-yl)tetrahydro-2H-pyran-3-amine], the IC50 in assay [1] is below 0.1 µM. Further, the change in vivo at 0.3 mg/kg in assay [2] was -7.3 ± 1.6%.

For `CN(C)S(=O)(=O)N1CC2CN([C@H]3CO[C@H](c4cc(F)ccc4F)[C@@H](N)C3)CC2C1` (stereo partly drawn) [Compound 7, 5-((3R,5S,6R)-5-amino-6-(2,5-difluorophenyl)tetrahydro-2H-pyran-3-yl)-N,N-dimethylhexahydropyrrolo[3,4-c]pyrrole-2(1H)-sulfonamide], the 50% inhibitory concentration (IC50) in assay [1] is below 0.01 µM. In assay [2], the change in vivo at 0.3 mg/kg is -7.9 ± 1.2%.

With `CS(=O)(=O)N1CCC2(CCN([C@H]3CO[C@H](c4cc(F)ccc4F)[C@@H](N)C3)C2)C1` (stereo partly drawn) [Compound 2, (2R,3S,5R)-2-(2,5-difluorophenyl)-5-(7-(methylsulfonyl)-2,7-diazaspiro[4.4]-nonan-2-yl)tetrahydro-2H-pyran-3-amine], the IC50 in assay [1] is below 0.01 µM. Besides, the change in vivo at 0.3 mg/kg in assay [2] is -25.7 ± 1.8%.

For the compound `Cc1ccc(S(=O)(=O)N=S(C)(=O)N2CC3=C(CN([C@H]4CO[C@H](c5cc(F)ccc5F)[C@@H](N)C4)C3)C2)cc1` (stereo partly drawn) [Compound 49, (2R,3S,5R)-2-(2,5-difluorophenyl)-5-(5-(N-(4-methylbenzenesulfonyl)-S-methylsulfonimidoyl)-5,6-dihydropyrrolo[3,4-c]pyrrol-2(1H,3H,4H)-yl)tetrahydro-2H-pyran-3-amine], in assay [1], the IC50 is below 0.01 µM.

For `N[C@H]1C[C@@H](N2CC3=C(C2)CN(S(=O)(=O)c2ccc(C(F)(F)F)cc2)C3)CO[C@@H]1c1cc(F)ccc1F` [Compound 40, (2R,3S,5R)-2-(2,5-difluorophenyl)-5-(5-((4-(trifluoromethyl)phenyl)sulfonyl)-5,6-dihydropyrrolo[3,4-c]pyrrol-2(1H,3H,4H)-yl)tetrahydro-2H-pyran-3-amine], in assay [1], the IC50 is below 0.03 µM. Further, in assay [2], the change in vivo at 0.3 mg/kg was -14 ± 1.5%.

With `CS(=O)(=O)N1CC2CCN([C@H]3CO[C@H](c4cc(F)ccc4F)[C@@H](N)C3)C2C1` (stereo partly drawn) [Compound 16, (2R,3S,5R)-2-(2,5-difluorophenyl)-5-(5-(methylsulfonyl)hexahydropyrrolo[3,4-b]pyrrol-1(2H)-yl)tetrahydro-2H-pyran-3-amine], the IC50 in assay [1] was below 0.1 µM. In addition, the change in vivo at 0.3 mg/kg in assay [2] is -29.4 ± 6.8%.

Consider `CC(C)S(=O)(=O)N1CC2=C(CN([C@H]3CO[C@H](c4cc(F)ccc4F)[C@@H](N)C3)C2)C1` [Compound 31, (2R,3S,5R)-2-(2,5-difluorophenyl)-5-(5-(isopropylsulfonyl)-5,6-dihydropyrrolo[3,4-c]pyrrol-2(1H,3H,4H)-yl)tetrahydro-2H-pyran-3-amine], for which the IC50 in assay [1] was below 0.01 µM. Also, in assay [2], the change in vivo at 0.3 mg/kg was -28.1 ± 3.2%.

As for `N[C@H]1C[C@@H](N2CC3C(=O)N(Cc4ccccc4)C(=O)C3C2)CO[C@@H]1c1cc(F)ccc1F` (stereo partly drawn) [Compound 11, 5-((3R,5S,6R)-5-amino-6-(2,5-difluorophenyl)tetrahydro-2H-pyran-3-yl)-2-benzyltetrahydropyrrolo[3,4-c]pyrrole-1,3(2H,3aH)-dione], in assay [1], the IC50 was below 0.1 µM. In addition, the change in vivo at 0.3 mg/kg in assay [2] was -25.6 ± 3.2%.

Turning to `Cc1ccc(S(=O)(=O)N2CC3=C(CN([C@H]4CO[C@H](c5cc(F)ccc5F)[C@@H](N)C4)C3)C2)cc1` [Compound 37, (2R,3S,5R)-2-(2,5-difluorophenyl)-5-(5-tosyl-5,6-dihydropyrrolo[3,4-c]pyrrol-2(1H,3H,4H)-yl)tetrahydro-2H-pyran-3-amine], the IC50 in assay [1] is below 0.03 µM. Besides, in assay [2], the change in vivo at 0.3 mg/kg is -25.1 ± 3.2%.
